{
  "source": "PubChem BioAssay AID463204",
  "about": "(Broad Institute, 2010)",
  "note": "Active and inactive are the calls of the source.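 The calls were made as follows: active = AC50 no more than ten times the top concentration tested, that is within one log above it; inconclusive = flat curve fit with activity between 30% and 70%, or invalid poor fit; inactive = AC50 beyond ten times the top tested dose.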",
  "data": [
    {"system": "S. cerevisiae Mot1-301 ts growth rescue, BacTiter-Glo ATP luminescence", "test": "restored Mot1-301 yeast growth at 38.5C – whole organism, S. cerevisiae, Mot1-301 ts mutant, luminescence, dose retest, SUMOylation pathway inhibitor project, confirmation (AID 463204);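 also: growth at restrictive 38.5 degrees C of Mot1-301 OY566 strain; actives raise luminescence by restoring growth of the ts mutant at high temperature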", "values": [
      {"smiles": "C/C(=N\\NC(=O)c1cccc(N/N=C(\\C)c2ccc([N+](=O)[O-])cc2)c1)c1ccc([N+](=O)[O-])cc1", "AC50": "> 42 µM (inactive)"},
      {"smiles": "Cc1ccc(S(=O)(=O)N2CCCC2C(=O)NCCc2ccccc2)cc1", "note": "(stereo not given)", "AC50": "> 42 µM (inactive)"},
      {"smiles": "O=C1CCC(/C=C/c2ccccc2)=NN1Cc1ccc(Cl)c(Cl)c1", "AC50": "> 42 µM (inactive)"},
      {"smiles": "CCOc1cc(C(=S)N2CCOCC2)ccc1OC(=O)c1ccc(C)cc1", "AC50": "> 42 µM (inactive)"},
      {"smiles": "Cc1sc2nc(N)sc2c1C", "AC50": "> 42 µM (inactive)"},
      {"smiles": "COc1ccccc1CNc1ncnc2c1nnn2Cc1ccccc1", "AC50": "40.1 µM"},
      {"smiles": "CC(C)(C)NC(=O)C(c1cccs1)N(Cc1cccs1)C(=O)c1ccc(CN2CCOCC2)o1", "note": "(stereo not given)", "AC50": "> 42 µM (inactive)"},
      {"smiles": "CCOc1ccc(N(C(=O)C2CCCO2)C2C=CS(=O)(=O)C2)cc1", "note": "(stereo not given)", "AC50": "> 42 µM (inactive)"},
      {"smiles": "Cc1sc2nc(SCC(=O)NCCOCCO)n(C)c(=O)c2c1C", "AC50": "> 42 µM (inactive)"},
      {"smiles": "CN(C)C(/C=C/Nc1cccc(Br)c1)=C(C#N)C#N", "AC50": "> 42 µM (inactive)"},
      {"smiles": "O=C(C1CCN(S(=O)(=O)N2CCC3(CC2)OCCO3)CC1)N1CCC(Cc2ccccc2)CC1", "AC50": "> 42 µM (inactive)"},
      {"smiles": "CC(=O)c1cccc(N2C(=NC(=O)C3CCCCC3)SC3CS(=O)(=O)CC32)c1", "note": "(stereo not given)", "AC50": "> 42 µM (inactive)"},
      {"smiles": "CCCCOCCCNS(=O)(=O)Cc1ccccc1", "AC50": "> 42 µM (inactive)"},
      {"smiles": "Cc1c(C(=O)NC(=S)Nc2ccccc2N2CCCC2)cccc1[N+](=O)[O-]", "AC50": "> 42 µM (inactive)"},
      {"smiles": "N#CCCN(C(=O)COC(=O)c1ccc(S(=O)(=O)Nc2ccccc2)cc1)c1ccccc1", "AC50": "> 42 µM (inactive)"},
      {"smiles": "C=CC[N+]1(CC#Cc2ccccc2)CCCC1", "AC50": "> 42 µM (inactive)"},
      {"smiles": "Cc1cc(C(=O)NNC(=O)c2ccc(C)s2)c(C)o1", "AC50": "> 42 µM (inactive)"},
      {"smiles": "CCOc1ccc(N(CC(=O)NC2CCC(C)CC2)S(=O)(=O)c2c(C)noc2C)cc1", "note": "(stereo not given)", "AC50": "> 42 µM (inactive)"},
      {"smiles": "CN1/C(=C\\C(=O)COC(=O)c2ccc([N+](=O)[O-])o2)C(C)(C)c2ccccc21", "AC50": "13.6 µM"},
      {"smiles": "CC[C@@H]1C/C=C\\Cc2ccccc2[C@H](C(=O)C[C@@H](O)CC(C)=O)OC1=O", "AC50": "8.7 µM"},
      {"smiles": "CCOC(=O)C1(Cc2cccc(Cl)c2)CCCN(C(=O)CCOC)C1", "note": "(stereo not given)", "AC50": "> 42 µM (inactive)"},
      {"smiles": "CCCOc1ccc([N+](=O)[O-])c(N)c1", "AC50": "> 42 µM (inactive)"},
      {"smiles": "CCC(=O)N1CCc2cc(S(=O)(=O)CCC(=O)Nc3cccc(C)n3)ccc21", "AC50": "> 42 µM (inactive)"},
      {"smiles": "CC(C)CC(=O)Nc1ccc(C(=O)CN2C(=O)NC3(CCOc4ccccc43)C2=O)cc1", "note": "(stereo not given)", "AC50": "> 42 µM (inactive)"},
      {"smiles": "O=C(Nc1ccc(Cl)cc1)N1CCC(c2nc(-c3ccc(F)cc3)no2)CC1", "AC50": "> 42 µM (inactive)"},
      {"smiles": "Cc1cc(NC(=O)CSc2ncn(-c3ccccc3)n2)no1", "AC50": "> 42 µM (inactive)"},
      {"smiles": "Brc1ccc(-c2cn3cccnc3n2)cc1", "AC50": "> 42 µM (inactive)"},
      {"smiles": "Cc1ccc2c(C)c(C(=O)N(C)C(C)c3ccncn3)oc2c1C", "note": "(stereo not given)", "AC50": "> 42 µM (inactive)"},
      {"smiles": "Cc1ccc(C(=O)N/C(=C/c2ccccc2)C(=O)NCC2CCCO2)cc1", "note": "(stereo not given)", "AC50": "> 42 µM (inactive)"},
      {"smiles": "COc1cccc(-n2c(Cc3cc(=O)[nH]c(=O)[nH]3)nnc2SCc2cccnc2)c1", "AC50": "> 42 µM (inactive)"},
      {"smiles": "COc1ccc(NC(=O)CCC(=O)Nc2nnc(C(F)(F)F)s2)c(OC)c1", "AC50": "> 42 µM (inactive)"},
      {"smiles": "CC1CCCN(C(=O)Cc2ccc(F)cc2)C1", "note": "(stereo not given)", "AC50": "> 42 µM (inactive)"},
      {"smiles": "COc1cccc(-n2nnc3c(=O)n(CC(=O)N4CCCc5ccccc54)cnc32)c1", "AC50": "> 42 µM (inactive)"},
      {"smiles": "COc1cc(CNCCN2CCOCC2)ccc1OCc1ccccc1Cl", "AC50": "> 42 µM (inactive)"},
      {"smiles": "Cc1ccc(SCCC(=O)Nc2ccc(OCc3ccccc3)cc2)cc1", "AC50": "> 42 µM (inactive)"},
      {"smiles": "O=C(Cc1cccs1)N1CCCC(c2nc3c(nnn3Cc3ccc(F)cc3)c(=O)[nH]2)C1", "note": "(stereo not given)", "AC50": "> 42 µM (inactive)"},
      {"smiles": "COc1ccccc1CC(=O)N1CCN(S(=O)(=O)c2ccccc2)CC1", "AC50": "> 42 µM (inactive)"},
      {"smiles": "O=C(CSc1nccc(=O)[nH]1)c1cc2ccccc2o1", "AC50": "> 42 µM (inactive)"},
      {"smiles": "CC1Cc2ccccc2N1C(=O)Cn1c(=O)cc(O)c2ccccc21", "note": "(stereo not given)", "AC50": "> 42 µM (inactive)"},
      {"smiles": "CCC1(c2ccccc2)NC(=O)N(CC(=O)N(C)CC(=O)Nc2ccc(F)c(F)c2F)C1=O", "note": "(stereo not given)", "AC50": "> 42 µM (inactive)"},
      {"smiles": "CSc1ncc2ncn(C3OC(CO)C(O)C3O)c2n1", "note": "(stereo not given)", "AC50": "> 42 µM (inactive)"},
      {"smiles": "NC(=O)c1ccccc1NC(=O)c1ccc2c(c1)OCO2", "AC50": "> 42 µM (inactive)"},
      {"smiles": "Cc1ccc(C(=O)Nc2ccc3c(c2)OCCO3)c(Cl)c1", "AC50": "> 42 µM (inactive)"},
      {"smiles": "N/C(Cn1cncn1)=N\\NC(=O)c1ccc(Cl)cc1Cl", "AC50": "> 42 µM (inactive)"},
      {"smiles": "Cc1ccc(NC(=O)Cn2nc(C)c3ccccc3c2=O)cc1", "AC50": "> 42 µM (inactive)"},
      {"smiles": "O=C(c1ccco1)N1CCN(C(=O)C2Cc3ccccc3CN2S(=O)(=O)c2ccc(F)cc2)CC1", "note": "(stereo not given)", "AC50": "> 42 µM (inactive)"},
      {"smiles": "CC(C)c1cc(C(=O)N/N=C/C(Br)=C/c2ccccc2)n[nH]1", "AC50": "6.05 µM"},
      {"smiles": "COc1ccc(C(=O)NCC(=O)Nc2ccccc2)cc1OC", "AC50": "> 42 µM (inactive)"},
      {"smiles": "O=S(=O)(Nn1c(O)c(C=C2N=c3ccccc3=N2)sc1=S)c1ccccc1", "AC50": "> 42 µM (inactive)"},
      {"smiles": "Cc1cccn2c(=O)c3cc(C(=O)NCCc4ccccc4)sc3nc12", "AC50": "> 42 µM (inactive)"},
      {"smiles": "O=c1nc2ccc(Cl)cn2c2ccc(S(=O)(=O)N3CCOCC3)cc12", "AC50": "> 42 µM (inactive)"},
      {"smiles": "O=C(Nc1ccc2oc(-c3ccccc3F)nc2c1)c1ncn[nH]1", "AC50": "> 42 µM (inactive)"},
      {"smiles": "COc1ccc(N2C(=O)CCC(C(=O)NCc3cccnc3)C2c2ccc(OC)c(OC)c2)cc1", "note": "(stereo not given)", "AC50": "> 42 µM (inactive)"},
      {"smiles": "COc1ccc(C(=O)OCC(=O)c2ccc(C)c(S(=O)(=O)N3CCOCC3)c2)cc1OC", "AC50": "> 42 µM (inactive)"},
      {"smiles": "O=C1NC(=O)C(=Cc2ccc(N3CCOCC3)cc2)C(=O)N1", "AC50": "> 42 µM (inactive)"},
      {"smiles": "Cc1ccc(C)c(NC(NC(=O)c2ccccn2)C(Cl)(Cl)Cl)c1", "note": "(stereo not given)", "AC50": "> 42 µM (inactive)"},
      {"smiles": "Cc1ccc(O)c(CNc2nc3ccccc3n2C)c1", "AC50": "> 42 µM (inactive)"},
      {"smiles": "CCN(C(=O)Cn1nc(C)c([N+](=O)[O-])c1C)c1c(N)n(Cc2ccccc2)c(=O)[nH]c1=O", "AC50": "> 42 µM (inactive)"},
      {"smiles": "O=C(CCCc1nc(-c2ccc(Cl)cc2)no1)NC1CCCCC1", "AC50": "> 42 µM (inactive)"},
      {"smiles": "CS(=O)(=O)N(CC(=O)N1CCN(c2ccccc2F)CC1)C1CCCCC1", "AC50": "> 42 µM (inactive)"},
      {"smiles": "O=C(CN(CC1CCCO1)C(=O)CNS(=O)(=O)c1ccc(F)cc1)NCc1ccccc1", "note": "(stereo not given)", "AC50": "> 42 µM (inactive)"},
      {"smiles": "CN1C(=O)C(O)(CC(=O)c2ccccc2O)c2cc(Br)ccc21", "note": "(stereo not given)", "AC50": "> 42 µM (inactive)"},
      {"smiles": "O=C(O)CSc1ncnc2sc(-c3ccccc3)cc12", "AC50": "> 42 µM (inactive)"},
      {"smiles": "CCN(CC)S(=O)(=O)c1ccc(N2CCCC2)c(C(=O)OCC(=O)Nc2cc(C)on2)c1", "AC50": "> 42 µM (inactive)"},
      {"smiles": "Cc1ccc(CC(=O)O/N=C(\\N)c2cccc([N+](=O)[O-])c2)cc1", "AC50": "> 42 µM (inactive)"},
      {"smiles": "CC(C)(C)C1c2[nH]c3ccccc3c2CCN1Cc1cccc(OCCO)c1", "note": "(stereo not given)", "AC50": "> 42 µM (inactive)"},
      {"smiles": "Cc1nc(NC(=O)CSc2nc(N)cc(N)n2)sc1C", "AC50": "> 42 µM (inactive)"},
      {"smiles": "Cc1ccc(CNC(=O)CCNS(=O)(=O)c2cccs2)cc1", "AC50": "> 42 µM (inactive)"},
      {"smiles": "CC1=C(C#N)S(=O)(=O)C(C#N)C(c2ccccc2)C1", "note": "(stereo not given)", "AC50": "> 42 µM (inactive)"},
      {"smiles": "COc1ccc(NC(=O)C2CCCN(C(=O)Nc3cccc(OC)c3)C2)cc1", "note": "(stereo not given)", "AC50": "> 42 µM (inactive)"}
    ]}
  ]
}
